# Experimental data from patent publication EP0082498A2, “Beta-lactam compounds and process for the preparation thereof” (SAGAMI CHEMICAL RESEARCH CENTER, priority 1981, dated 1983).
# Like-named read-outs stand apart in the source and are kept apart here.
# Columns and labels:
# Test in all cases: Antibacterial activity, minimum inhibition concentration (MIC)
# Type in all cases: cell-based
# [1] = tested on: Proteus morganii IFO 3848; settings: for MIC: Morganella morganii; for minimum inhibition concentration (MIC): Table 1
# Procedure: (§1) Antibacterial activities of the compounds according to this invention, which had been prepared in the preceding Examples, were measured according to the method prescribed by The Committee of Amendment of "The method for measurement of the minimum inhibition concentration", The Chemotherapy Association, Japan (See Chemotherapy, Vol. 29, No. 1, pp. 76 ~ 79 (1981)).
# (§2) The test results are shown in terms of the minimum inhibition concentration (MIC) (unit: µg/mℓ) in the following Tables 1 to 4.
# [2] = tested on: Staphylococcus aureus MS 353; settings: for MIC: Staphylococcus aureus; for minimum inhibition concentration (MIC): Table 1
# Procedure: as §1, §2
# [3] = tested on: Salmonella typhimurium IID-971; settings: for MIC: Salmonella enterica, read-out: minimum inhibition concentration (MIC)
# Procedure: as §1, §2
# [4] = IFO3848, Table 1, Proteus morganii IFO 3848, read-out: minimum inhibition concentration (MIC)
# [5] = MS353, Table 1, Staphylococcus aureus MS 353, read-out: minimum inhibition concentration (MIC)
# [6] = Table 1, Salmonella typhimurium IID-971
"MIC [1, 4] [µg/mL]","MIC [2, 5] [µg/mL]","MIC [3, 6] [µg/mL]",SMILES,also measured
0.0125,0.2,≤ 0.006,"Cn1nnnc1SCC1=C(C(=O)O)N2C(=O)C(NC(=O)C(=CBr)c3csc(N)n3)C2SC1 (stereo not drawn) [Example 21, 7-[2-Bromomethylene-2-(2-aminothiazol-4-yl)acetamido]-3-(l-methyl-lH-tetrazol-5-yl)thiomethyl-3-cephem-4-carboxylic acid]",–
1.56,0.39,1.56,"Cn1nnnc1SCC1=C(C(=O)O)N2C(=O)C(NC(=O)C(=CCl)c3cnc(N)s3)C2SC1 (stereo not drawn) [Example 7, sodium 7-[2-chloromethylene-2-(2-aminothiazol-5-yl)acetamido]-3-(l-methyl-lH-tetrazol-5-yl)thiomethyl-3-cephem-4-carboxylate]",–
–,3.12,25,"Cn1nnnc1SCC1=C(C(=O)O)N2C(=O)C(NC(=O)C(=CCl)Sc3cnc(N)s3)C2SC1 (stereo not shown) [Example 9, sodium 7-[2-chloromethylene-3-(2-aminothiazol-5-yl)mercaptoacetamido]-3-(1-methyl-1H-tetrazol-5-yl)thiomethyl-3-cephem-4-carboxylate]",–
≤ 0.006,1.56,≤ 0.006,"CSC=C(C(=O)NC1C(=O)N2C(C(=O)O)=C(CSc3nnnn3C)CSC12)c1csc(N)n1 (stereo not drawn) [Example 12, 7-[2-Methylmercaptomethylene-2-(2-aminothiazol-4-yl)-acetamido]-3-(l-methyl-lH-tetrazol-5-yl)thiomethyl-3-cephem-4-carboxylic acid]",–
–,–,0.78,"Cn1nnnc1SCC1=C(C(=O)O)N2C(=O)C(NC(=O)C(=CCl)c3ccccc3)C2SC1 (single isomer, unassigned) [Example 5, 7-(2-chloromethylenephenylacetamido)-3-(1-methyl-lH-tetrazol-5-yl)thiomethyl-3-cephem-4-carboxylic acid]",minimum inhibition concentration (MIC) ([1]; Proteus morganii IFO 3848): 0.78 µg/mL; minimum inhibition concentration (MIC) ([2]; Staphylococcus aureus MS 353): 0.05 µg/mL
≤ 0.006,12.5,0.1,"Cn1nnnc1SCC1=C(C(=O)O)N2C(=O)C(NC(=O)C(=CC(N)=O)c3csc(N)n3)C2SC1 (single isomer, unassigned) [Example 18, 7-[2-Carbamoylmethylene-2-(2-aminothiazol-4-yl)acetamido]-3-(1-methyl-lH-tetrazol-5-yl)thiomethyl-3-cephem-4-carboxylic acid]",–

# More lines, now with the values behind:
SMILES,"MIC [1, 4] [µg/mL]","MIC [2, 5] [µg/mL]","MIC [3, 6] [µg/mL]",also measured
"CC1=C(C(=O)O)N2C(=O)C(NC(=O)C(=CCl)c3csc(N)n3)C2SC1 (single isomer, unassigned) [Example 2, sodium 7-[2-chloromethylene-2-(2-aminothiazol-4-yl)acetamido]desacetoxy-cephalosporanate]",0.0125,6.25,0.0125,–
"CC(=O)OCC1=C(C(=O)O)N2C(=O)C(NC(=O)C(=CCl)c3cnc(N)s3)C2SC1 (stereo not shown) [Example 8, sodium 7-[2-chloromethylene-2-(2-aminothiazol-5-yl)acetamido]-cephalosporanate]",–,0.78,25,–
"Nc1nc(C(=CCl)C(=O)NC2C(=O)N3C(C(=O)O)=C(CSc4nnnn4CC(=O)O)CS[C@H]23)cs1 (single isomer, unassigned) [Example 19, 7-[2-Chloromethylene-2-(2-aminothiazol-4-yl)acetamido]-3-(1-carboxymethyl-1H-tetrazol-5-yl)thiomethyl-3-cephem-4-carboxylic acid]",≤ 0.006,1.56,≤ 0.006,–
"Cn1nnnc1SCC1=C(C(=O)O)N2C(=O)C(NC(=O)C(=CC#N)c3csc(NC=O)n3)[C@H]2SC1 (single isomer, unassigned) [Example 15, 7-[2-Cyanomethylene-2-(2-formylaminothiazol-4-yl)acetamido]-3-(1-methyl-1H-tetrazol-5-yl)thiomethyl-3-cephem-4-carboxylic acid]",–,–,–,"minimum inhibition concentration (MIC) ([1]; Proteus morganii IFO 3848): 0.39 µg/mL; minimum inhibition concentration (MIC) ([2]; Staphylococcus aureus MS 353): 1.56 µg/mL; minimum inhibition concentration (MIC) [3, 6]: 0.05 µg/mL"
"Cn1nnnc1SCC1=C(C(=O)O)N2C(=O)C(NC(=O)C(=CCl)c3ccccc3)C2SC1 (single isomer, unassigned) [Example 6, 7-(2-chloromethylenephenylacetamido)-3-(l-methyl-lH-tetrazol-5-yl)thiomethyl-3-cephem-4-carboxylic acid]",–,–,–,"minimum inhibition concentration (MIC) ([1]; Proteus morganii IFO 3848): 6.25 µg/mL; minimum inhibition concentration (MIC) ([2]; Staphylococcus aureus MS 353): 0.78 µg/mL; minimum inhibition concentration (MIC) [3, 6]: 1.56 µg/mL"
"CCSC=C(C(=O)NC1C(=O)N2C(C(=O)O)=C(CSc3nnnn3C)CSC12)c1csc(N)n1 (stereo not drawn) [Example 11, 7-[2-ethylmercaptomethylene-2-(2-aminothiazol-4-yl)-acetamido]-3-(l-methyl-lH-tetrazol-5-yl)thiomethyl-3-cephem-4-carboxylic acid]",–,–,–,"minimum inhibition concentration (MIC) ([1]; Proteus morganii IFO 3848): ≤ 0.006 µg/mL; minimum inhibition concentration (MIC) ([2]; Staphylococcus aureus MS 353): 0.78 µg/mL; minimum inhibition concentration (MIC) [3, 6]: ≤ 0.006 µg/mL"
"CCSC=C(C(=O)NC1C(=O)N2C(C(=O)O)=C(CSc3nnnn3C)CSC12)c1csc(N)n1 (stereo not drawn) [Example 10, sodium 7-[2-ethylmercaptomethylene-2-(2-aminothiazol-4-yl)acetamido]-3-(l-methyl-lH-tetrazol-5-yl)thiomethyl-3-cephem-4-carboxylate]",≤ 0.006,1.56,≤ 0.006,–
"COC(=N)C=C(C(=O)NC1C(=O)N2C(C(=O)O)=C(CSc3nnnn3C)CSC12)c1csc(N)n1 (single isomer, unassigned) [Example 17, 7-[2-(o-methylcarboxyimidoylmethylene)-2-(2-aminothiazol-4-yl)acetamido]-3-(1-methyl-1H-tetrazol-5-yl)thiomethyl-3-cephem-4-carboxylic acid]",≤ 0.006,3.12,0.0125,–
"Cc1nnc(SCC2=C(C(=O)O)N3C(=O)C(NC(=O)C(=CCl)c4csc(N)n4)C3SC2)s1 (single isomer, unassigned) [Example 1, sodium 7-[2-chloromethylene-2-(2-aminothiazol-4-yl)acetamido]-3-(2-methyl-l,3,4-thiadiazol-5-yl)thiomethyl-3-cephem-4-carboxylate]",≤ 0.006,0.1,≤ 0.006,–
"Cn1nc(O)c(=O)nc1SCC1=C(C(=O)O)N2C(=O)C(NC(=O)C(=CCl)c3csc(N)n3)C2SC1 (single isomer, unassigned) [Example 4, disodium 7-[2-chloromethylene-2-(2-aminothiazol-4-yl)acetamido]-3-(2,5-dihydro-6-hydroxy-2-methyl-5-oxo-as-triazin-3-yl)thiomethyl-3-cephem-4-carboxylate]",≤ 0.006,0.78,≤ 0.006,–
"Nc1nc(C(=CCl)C(=O)NC2C(=O)N3C(C(=O)[O-])=C(CSc4nncs4)CS[C@H]23)cs1.[Na+] (single isomer, unassigned) [Example 3, sodium 7-[2-chloromethylene-2-(2-aminothiazol-4-yl)acetamido]-3-(1,3,4-thiadiazol-5-yl)thiomethyl-3-cephem-4-carboxylate]",–,–,–,"MIC ([1]; IFO3848, read-out: minimum inhibition concentration (MIC)): ≤ 0.006 µg/mL; MIC ([2]; MS353, read-out: minimum inhibition concentration (MIC)): 0.1 µg/mL; MIC [3]: ≤ 0.006 µg/mL"
"Cn1nnnc1SCC1=C(C(=O)O)N2C(=O)C(NC(=O)C(=CC#N)c3csc(NC=O)n3)[C@H]2SC1 (single isomer, unassigned) [Example 13, 7-[2-Cyanomethylene-2-(2-formylaminothiazol-4-yl)acetamido]-3-(1-methyl-1H-tetrazol-5-yl)thiomethyl-3-cephem-4-carboxylic acid]",–,–,–,"minimum inhibition concentration (MIC) ([1]; Proteus morganii IFO 3848): 50 µg/mL; minimum inhibition concentration (MIC) ([2]; Staphylococcus aureus MS 353): 50 µg/mL; minimum inhibition concentration (MIC) [3, 6]: 25 µg/mL"
